Test system: PERCOLL isolated cells
Test: Proliferation of PERCOLL isolated whole brain cells
Format: cell-based, rat
Conditions: 20 ng/ml bFGF in vitro
Protocol: Dissection. Adult female Fischer 344 rats (4-6 months of age) were anesthetized with a mixture of ketamine (44 mg/kg), acepromazine (0.75 mg/kg), and xylazine (4 mg/kg) in 0.9% NaCl and decapitated. The brains were removed and placed into cold phosphate-buffered saline (PBS).
Tissue Preparation. A cell suspension was obtained by pooling the brains from 6 animals from which the cerebella had been trimmed away. The remaining brain tissue was then weighed. The brains were diced into small fragments, and then digested for 40-50 min at 37° C. in Hanks' balanced salt solution containing 0.1% grade II neutral protease (Boehringer Mannheim), 0.01% papain (Worthington), and 0.01% Dnase I (Worthington). The mixture was shaken every five minutes. Every fifteen minutes during the digestion, the tissues were gently disrupted by pipetting the digestion reaction mixture through a 5-ml pipette. The tissue was then rinsed two times with DMEM/F12 containing 10% […] bovine serum, to inactivate digestive enzymes, and filtered through nylon mesh (Nitex, 100 μm pore size), to remove undissociated tissue. The filtered cells were resuspended to a final volume of 10 ml in DMEM/F12/10% FBS.
PERCOLL™ (polyvinylpyrrolidone-coated silica colloids) density gradient preparation and centrifugation. […]

FGF-2: basic fibroblast growth factor, human recombinant, prepared in E. coli
proliferation response: inducible to proliferate

Reference: patent US6767738B1, “Method of isolating adult mammalian CNS-derived progenitor stem cells using density gradient centrifugation” (The Salk Institute for Biological Studies, priority 1999, dated 2004)
